# Source: patent publication US20230091960A1, “CULTURE MEDIUM FOR PRIMARY CELLS OF ESOPHAGEAL SQUAMOUS CARCINOMA, AND CULTIVATION METHOD THEREFOR” (PRECEDO PHARMACEUTICALS CO., LTD, priority 2020, published 2023)
# B1: FGF7: fibroblast growth factor 7 (protein, UniProt P21781 32-194, looked up)
# Fibroblast growth factor 7: CNDMTPEQMATNVNCSSPERHTRSYDYMEGGDIRVRRLFCRTQWYLRIDKRGKVKGTQEMKNNYNIMEIRTVAVGIVAIKGVESEFYLAMNKEGKLYAKKECNEDCNFKELILENHYNTYASAKWTHNGGEMFVALNQKGIPVRGKKTKKEQKTAHFLPMAIT
# B2: FGF10: fibroblast growth factor 10 (protein, UniProt O15520 38-208, looked up)
# Fibroblast growth factor 10: QALGQDMVSPEATNSSSSSFSSPSSAGRHVRSYNHLQGDVRWRKLFSFTKYFLKIEKNGKVSGTKKENCPYSILEITSVEIGVVAVKAINSNYYLAMNKKGKLYGSKEFNNDCKLKERIEENGYNTYASFNWQHNGRQMYVALNGKGAPRRGQKTRRKNTSAHFLPMVVHS
# Tests used:
# Format in all cases: cell-based, human
# [1] = tested on: primary cells of esophageal squamous carcinoma; test: Effects of concentrations of the added factors or small molecule compounds on proliferation (Example 7); details: for proliferation promoting effect when added to No. 7 medium: 10 μM, 3 μM, 1 μM, 0.3 μM, 0.1 μM, control No. 7 medium; for concentration at which the cell proliferation effect is most significant: added to No. 7 medium lacking this factor
# Description: According to the same process as in Example 1, endoscopic tissue Sample 65, Sample 66, Sample 67, Sample 68 and Sample 69 were isolated to obtain primary cells of esophageal squamous carcinoma, and the obtained primary cells of esophageal squamous carcinoma were cultured by using No. 7 medium of Example 1. The resultants were inoculated into 12-well plate at a living cell density of 1×10^4/cm^2 (45,000 cells per well), and then the plate was added with NIH-3T3 cells that have been irradiated by γ-ray (irradiation dose 35Gy) at a cell density of 2×10^4/cm^2, which were then fully mixed. After surface disinfection, the plate was placed in a 37° C., 5% CO2 incubator (Thermo Fisher) for culture. When the cells expended to cover 85% of the plate, the 12-well plate was taken out, rinsed with 200 μL 0.25% trypsin (Gibco) for 1 minute. The liquid was removed by sucking, and 500 μL 0.05% trypsin (Gibco) was added to each well again. The resultant was placed in a 37° C., 5% CO2 incubator to react for 10 minutes, and the digestion can be terminated until it can be observed under the microscope (EVOS […], Invitrogen) that the cells have been completely digested. After being centrifuged at 1500 rpm for 4 minutes, the supernatant was discarded, and 1 mL of basic culture medium was added for resuspension. The total number of cells was obtained by counting with a flow imaging counter (JIMBIO FIL, Jiangsu Jimbio Technology Co., Ltd.). The obtained cells were used for the following cultivation experiments. The digested cell suspension was diluted with the above Formulations 1-8 and No. 7 medium in Example 1 respectively, and were seeded into a 24-well plate with 20,000 cells and 500 μL volume per well. When using the medium of Formulation 1, five concentration gradients of N2 additives with the final concentration of 1:400, 1:200, 1:100, 1:50 and 1:25 were prepared, respectively, and the prepared N2 additives were added respectively to a 24-well plate inoculated with primary cells, with 500 μL per well; the medium of Formulation 1 was used as the control hole (BC). When using the medium of Formulation 2, five concentration gradients of non-essential amino acids with the final concentration of 400 μM, 200 μM, 100 μM, 50 μM, 25 μM were prepared, respectively, and the prepared non-essential amino acids were added respectively to a 24-well plate inoculated with primary cells, with 500 μL per well; the medium of Formulation 2 was used as the control hole (BC). When using the medium of Formulation 3, five concentration gradients of glutamine with the final concentration of 8 mM, 4 mM, 2 mM, 1 mM, 0.5 mM were prepared, respectively, and the prepared glutamine were added respectively to a 24-well plate inoculated with primary cells, with 500 μL per well; the medium of Formulation 3 was used as the control hole (BC). When using the medium of Formulation 4, five concentration gradients of insulin with the final concentration of 40 μg/mL, 20 μg/mL, 10 μg/mL, 5 μg/mL, 2.5 μg/mL were prepared, respectively, and the prepared insulin were added respectively to a 24-well plate inoculated with primary cells, with 500 μL per well; the medium of Formulation 4 was used as the control hole (BC). When using the medium of Formulation 5, five concentration gradients of insulin-like growth factor 1 (IGF1) with the final concentration of 40 ng/mL, 20 ng/mL, 10 ng/mL, 5 ng/mL, 2.5 ng/mL were prepared, respectively, and the prepared insulin-like growth factor 1 (IGF1) were added respectively to a 24-well plate inoculated with primary cells, with 500 μL per well; the medium of Formulation 5 was used as the control hole (BC). […]
# [2] = tested on: primary cells of esophageal squamous carcinoma; test: Effect of a single factor added to the basic culture medium on proliferation (Example 2); details: Sample 57, 7th day; BM = DMEM/F12 + 10 μM Y27632 + 100 mg/mL Primocin; factor at its No. 7 medium concentration
# Description: To the basic culture mediums of Example 1 (DMEM/F12 medium+10 μM Y27632+100 mg/mL Primocin) were separatedly added 1:50 ratio of N2 additive, 20 μg/mL insulin, 7 μg/mL bovine pituitary extract, 2 mM glutamine, 400 μM non-essential amino acids, 0.4 μg/mL hydrocortisone, 5 ng/mL insulin-like growth factor 1, respectively, to prepare the culture mediums of this Example. According to the same process as in Example 1, endoscopic tissue Sample 57, Sample 58, Sample 59, Sample 60 and Sample 61 were isolated to obtain primary cells of esophageal squamous carcinoma, and the obtained primary cells of esophageal squamous carcinoma were cultured by using the respective culture mediums prepared in this Example, as well as BM medium and No. 7 medium (EM) of Example 1. The resultants were inoculated into 48-well plate at a living cell density of 1×10^4/cm^2 (10,000 cells per well), and then the plate was added with NIH-3T3 cells that have been irradiated by γ-ray (irradiation dose 35Gy) at a cell density of 2×10^4/cm^2, which were then fully mixed. After surface disinfection, the plate was placed in a 37° C., 5% CO2 incubator (Thermo Fisher) for culture. On the 7th day of culture, the 48-well plate was taken out, rinsed with 200 μL 0.25% trypsin (Gibco) for 1 minute. The liquid was removed by sucking, and 500 μL 0.05% trypsin (Gibco) was added to each well again. The resultant was placed in a 37° C., 5% CO2 incubator to react for 10 minutes, and the digestion can be terminated until it can be observed under the microscope (EVOS […], Invitrogen) that the cells have been completely digested. After being centrifuged at 1500 rpm for 4 minutes, the supernatant was discarded, and 1 mL of basic culture medium was added for resuspension. The total number of cells was obtained by counting with a flow imaging counter (JIMBIO FIL, Jiangsu Jimbio Technology Co., Ltd.). The effect of combination of two factors in the culture medium for primary cells of esophageal squamous carcinoma on the proliferation of primary cells of esophageal squamous carcinoma was evaluated. The results obtained from primary cells of esophageal squamous carcinoma isolated from endoscopic tissue Sample 57 are shown in FIG. 2.
# [3] = tested on: primary cells of esophageal squamous carcinoma; test: Effect of adding other factors to EM medium on proliferation (Example 3); details: Sample 62, 10 ng/ml factor added to No. 7 medium (EM), cultured for 7 days
# Description: To No. 7 mediums (EM) of Example 1 were separately added 10 ng/ml fibroblast growth factor 2 (FGF2), 10 ng/ml fibroblast growth factor 10 (FGF10), 10 ng/ml fibroblast growth factor 7 (FGF7) or the combination of 10 ng/ml FGF2, 10 ng/ml FGF10 and 10 ng/ml FGF7, respectively, to prepare the mediums of this Example.
# According to the same process as in Example 1, endoscopic tissue Sample 62 and Sample 63 were isolated to obtain primary cells of esophageal squamous carcinoma, and the obtained primary cells of esophageal squamous carcinoma were cultured by using the respective culture mediums prepared in this Example, as well as No. 7 medium (EM) of Example 1. The resultants were inoculated into 48-well plate with at a cell density of 1×10^4/cm^2 (10,000 cells per well), and then the plate was added with NIH-3T3 cells that have been irradiated by γ-ray (irradiation dose 35Gy) at a cell density of 2×10^4/cm^2, which were then fully mixed. After surface disinfection, the plate was placed in a 37° C., 5% CO2 incubator (Thermo Fisher) for culture. On the 7th day of culture, the 48-well plate was taken out, rinsed with 200 μL 0.25% trypsin (Gibco) for 1 minute. The liquid was removed by sucking, and 500 μL 0.05% trypsin (Gibco) was added to each well again. The resultant was placed in a 37° C., 5% CO2 incubator to react for 10 minutes, and the digestion can be terminated until it can be observed under the microscope (EVOS M500, Invitrogen) that the cells have been completely digested. After being centrifuged at 1500 rpm for 4 minutes, the supernatant was discarded, and 1 mL of No. 7 medium (EM) was added for resuspension. The total number of cells was obtained by counting with a flow imaging counter (JIMBIO FIL, Jiangsu Jimbio Technology Co., Ltd.). The effect of adding other factors to the culture medium for primary cells of esophageal squamous carcinoma of the invention on the proliferation of primary cells of esophageal squamous carcinoma was evaluated. […]
molecule,measurement,setting,value
C[C@H](NC(=O)Cc1cc(F)cc(F)c1)C(=O)N[C@H](C(=O)OC(C)(C)C)c1ccccc1 [DAPT],proliferation promoting effect when added to No. 7 medium,[1],do not show significant proliferation promoting effect
Cc1ccc2nc(NC(=O)CSc3nc4c(c(=O)n3-c3ccccc3)SCC4)sc2c1 [IWP2],proliferation promoting effect when added to No. 7 medium,[1],do not show significant proliferation promoting effect
insulin,cell proliferation efficiency when one factor is added to the basic culture medium,[2],"better than that of the basic culture medium, but was not as good as that of the No. 7 medium (EM)"
same,concentration at which the cell proliferation effect is most significant,[1]; five concentration gradients,20 ng/mL
FGF2: fibroblast growth factor 2,effect on proliferation as compared with EM medium (ratio of cell numbers),[3],no significant effect for promoting proliferation
NC(=O)CC[C@H](N)C(=O)O [glutamine],cell proliferation efficiency when one factor is added to the basic culture medium,[2],"better than that of the basic culture medium, but was not as good as that of the No. 7 medium (EM)"
same,concentration at which the cell proliferation effect is most significant,[1]; tested 0.5-8 mM,2 mM
c1ccc2c(-c3cnn4cc(-c5ccc(N6CCNCC6)cc5)cnc34)ccnc2c1 [LDN193189],proliferation promoting effect when added to No. 7 medium,[1],do not show significant proliferation promoting effect
Cc1c[nH]c(-c2cnc(NCCNc3ccc(C#N)cn3)nc2-c2ccc(Cl)cc2Cl)n1 [CHIR99021],proliferation promoting effect when added to No. 7 medium,[1],do not show significant proliferation promoting effect
NC(=O)c1ccc(-c2nc(-c3ccc4c(c3)OCO4)c(-c3ccccn3)[nH]2)cc1 [SB431542],proliferation promoting effect when added to No. 7 medium,[1],do not show significant proliferation promoting effect
"insulin-like growth factor 1: insulin-like growth factor 1 (IGF-1, Sino Biological)",cell proliferation efficiency when one factor is added to the basic culture medium,[2],"better than that of the basic culture medium, but was not as good as that of the No. 7 medium (EM)"
same,concentration at which the cell proliferation effect is most significant,[1]; five concentration gradients,5 ng/mL
CC(C)Oc1ccc(-c2cnc3c(-c4ccnc5ccccc45)cnn3c2)cc1 [DMH-1],proliferation promoting effect when added to No. 7 medium,[1],do not show significant proliferation promoting effect
C[C@@H](N)[C@H]1CC[C@H](C(=O)Nc2ccncc2)CC1 [Y27632],concentration at which the cell proliferation effect is most significant,[1]; five concentration gradients,0.01 mM
Cc1cccc(-c2nn(C(=S)Nc3ccccc3)cc2-c2ccnc3ccccc23)n1 [A83-01],proliferation promoting effect when added to No. 7 medium,[1],do not show significant proliferation promoting effect
C[C@]12CCC(=O)C=C1CC[C@@H]1[C@@H]2[C@@H](O)C[C@@]2(C)[C@H]1CC[C@]2(O)C(=O)CO [hydrocortisone],cell proliferation efficiency when one factor is added to the basic culture medium,[2],"better than that of the basic culture medium, but was not as good as that of the No. 7 medium (EM)"
same,concentration at which the cell proliferation effect is most significant,[1]; five concentration gradients,400 ng/mL
B1,effect on proliferation as compared with EM medium (ratio of cell numbers),[3],inhibited
B2,effect on proliferation as compared with EM medium (ratio of cell numbers),[3],no significant effect for promoting proliferation
